Values joined by “and” are separate entries in the source; they are usually repeats but may differ in a detail not shown here. Identical values can stand only once.
Tests used:
Drosophila RDL = biological target: T1, Drosophila RDL (Drosophila melanogaster, UniProt P25123); assay: RDL receptors assay: two-electrode voltage clamp electrophysiology in Xenopus oocytes; format: cell-based
T1 construct: expressed in transfected cells; host or cells: Xenopus oocytes (Ecocyte, Austin, TX) microinjected with capped cRNA
T1 sequence (P25123 45-606): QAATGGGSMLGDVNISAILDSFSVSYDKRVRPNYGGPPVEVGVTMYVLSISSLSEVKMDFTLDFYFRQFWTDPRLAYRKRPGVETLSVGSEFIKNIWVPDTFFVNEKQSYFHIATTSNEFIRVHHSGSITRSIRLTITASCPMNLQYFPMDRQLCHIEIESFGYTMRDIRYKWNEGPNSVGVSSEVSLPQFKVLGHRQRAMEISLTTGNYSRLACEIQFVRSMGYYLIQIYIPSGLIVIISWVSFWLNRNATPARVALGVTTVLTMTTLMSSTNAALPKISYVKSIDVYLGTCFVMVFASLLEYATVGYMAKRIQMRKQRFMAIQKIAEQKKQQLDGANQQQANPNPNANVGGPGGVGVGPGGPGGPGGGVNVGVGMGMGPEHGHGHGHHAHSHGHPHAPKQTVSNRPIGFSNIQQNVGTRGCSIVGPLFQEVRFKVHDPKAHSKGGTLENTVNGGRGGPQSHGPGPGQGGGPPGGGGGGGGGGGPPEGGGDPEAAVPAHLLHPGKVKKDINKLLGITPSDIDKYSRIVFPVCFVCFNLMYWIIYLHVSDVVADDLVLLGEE
Method: 5. RDL receptors binding assay
The Drosophila RDL sequence (NP_01261616.1) was cloned into the pGH19 backbone via Gibson assembly for capped cRNA synthesis using the T7 mMessage mMachine kit (Invitrogen). cRNA samples were stored at - 80 °C until use. Ready to inject Xenopus oocytes were obtained from Ecocyte (Austin, TX) and microinjected using a Nanoinject III (Drummond Scientific) with 4 nL of cRNA (1 μg/μL). The oocytes were then incubated at 16 °C in ND96 storage solution (93.5 mM NaCl, 2 mM KCl, 1.8 mM CaCl 2·2H2O, 2 mM MgCl 2·6H2O, 5 mM HEPES at pH 7.5). Recording were made 1 -6 days post injection.
Electrophysiology experiments were performed using an automated two -electrode voltage clamp set -up (Roboocyte 2, Mutlichannel Systems). Recording head were filled with 3M KCl and gave resistan ce of 100-2000 kΩ in medium. Membrane potential was held at -60 mV and current signal was sampled at 20 kHz.
Experiments were performed at room temperature using Modified Barth’s Saline (MBS) (88 mM NaCl, 1 mM KCl, 2.4 mM NaHCO 3, 15 mM HEPES, 0.3 mM Ca(NO3)2, 0.41 mM CaCl 2, and 0.82 mM MgSO 4·7H2O at pH 7.4). Oocytes were perfused with MBS at 5 mL/min in all assays. GABA and all compounds were dissolved in MBS and a 0.1% DMSO negative control was utilized to correct for any solvent effect.
Initial block potential of each compound was assessed utilizing a pre -incubation method (MBS (30 sec), 10 μM GABA (15 sec), MBS wash (60 sec), compound (60 sec), compound + 10 μM GABA (15 sec), compound (60 sec), compound + 10 μM GABA (15 sec), MBS wash (60 sec) with 10 μM of each test compound. The maximum signal of the second co -application was compared to the initial GABA response to determine the % block and then standardized against the corresponding value of the 0.1% DMSO control. Dose responses were performed for any compound showing >50% block in the initial test using 10, 1, and 0.1 μM. The IC50 values were fit using an inhibitor vs response 4 -parameter fit (GraphPad Prism 8.1.2).
Supplementary Table 9. IC50 values of test compound
Compound IC50 (µM) Compound IC50 (µΜ)

[1] = Stability in mouse plasma; format: in vitro ADME; conditions: for T½ in mouse plasma / half-life at 2 µM: 37 °C, incubation to 120 min, extrapolated half-life, n = 2; for half-life at 2 µM / remaining at 0 h, 2 µM / remaining at 10 min, 2 µM / remaining at 0.5 h, 2 µM / remaining at 1 h, 2 µM / remaining at 2 h, 2 µM: male, CD-1, mouse, plasma; for half-life at 2 µM: read-out: T½ in mouse plasma; for remaining at 0 h, 2 µM: 0 min; for remaining at 0.5 h, 2 µM: 30 min; for remaining at 1 h, 2 µM: 60 min; for remaining at 2 h, 2 µM: 120 min
Description: (§1) We investigated the relative rates of esterase-mediated hydrolysis[17] observed in mouse and human plasma, to evaluate potential for future translational applications. […] Due to the high stability of the C15 lactone, identified above, combined with the kinetic lability and reversible opening of the C11 lactone identified previously, enzymatic degradation in serum likely reflects a combination of reversible C11 hydrolysis[38] (unaffected by C5 methylation) and irreversible C15 hydrolysis (obstructed by C5 methylation)[17]. No prior studies have identified PXN modifications that enhance metabolic stability, partly due to the difficulty of synthetic modification and partly due to the prior incorrect assignment of the site of kinetic hydrolysis (C11 vs. C15)[38].
(§2) Test compound working solution: 5 μL of tested compound stock solution (10 mM in DMSO) were diluted with 495 μL of DMSO (concentration: 100 μM, 100% DMSO). Propantheline bromide working solution: 5 μL of propantheline bromide stock solution (10 mM in DMSO) were diluted with 495 μL of H2O (concentration: 100 […]
(§3) Supplementary Table 6. Test system.
(§4) Species/ Matrix Minimum No. of Anticoagulant Vendor
(§5) CD-1 Mouse 20 Male EDTA-K2 Beijing Vital River Laboratory
(§6) Human Plasma 3 Male & 3 Female EDTA-K2 BioreclamationIVT
(§7) The pooled frozen plasma was thawed in a water bath at 37 °C prior to experiment. Plasma was centrifuged at 1968 g (4000 rpm) for 5 min and the clots were removed. Using an Apricot automation work station, 98 μL/well of blank plasma were added to all 96-well reaction plates. (Blank, T0, T10, T30, T60 and T120) . An Apricot automation workstation was used to add 2 μL/well of working solution (100 μM) to all reaction plates except Blank. (T0, T10, T30, T60 and T120) . All reaction plates containing mix tures of compound a nd plasma were incubated at 37 °C in water bath. The reaction plates were incubated at 37 °C, and timer was started. At the end of incubation, 400 μL of stock solution was added (200 ng/mL tolbutamide and 200 ng/mL labetalol in MeCN) to precipitate protein and mixed thoroughly. Each plate was sealed and shaken for 20 minutes, then centrifuged at 1968 g (4000 rpm) and 4 °C for 20 minutes. After centrifugation, an Apricot automation workstation was used to transfer 150 μL supernatant. Each bioanalysis plate was sealed and shaken for 10 minutes prior to LC -MS/MS […]
(§8) The % remaining of test compound after incubation in plasma was calculated using following equation:
(§9) % Remaining= 100 x (PAR at appointed incubation time / PAR at T0 time) where PAR is the peak area ratio of analyte versus internal standard (IS) The appointed incubation time points are T0 (0 min), Tn (n=0, 10, 30, 60, 120 min)
(§10) Supplementary Table 7. %Remaining of test compound in two plasmas.
(§11) Compound Time point (min) % Remaining T½ (min)

[2] = Stability in human plasma; format: in vitro ADME; conditions: for T½ in human plasma / half-life at 2 µM: 37 °C, incubation to 120 min, extrapolated half-life, n = 2; for half-life at 2 µM / remaining at 0 h, 2 µM / remaining at 10 min, 2 µM / remaining at 0.5 h, 2 µM / remaining at 1 h, 2 µM / remaining at 2 h, 2 µM: both sexes, human, plasma; for half-life at 2 µM: read-out: T½ in human plasma; for remaining at 0 h, 2 µM: 0 min; for remaining at 0.5 h, 2 µM: 30 min; for remaining at 1 h, 2 µM: 60 min; for remaining at 2 h, 2 µM: 120 min
Description: as §1, §2, §3, §4, §5, §6, §7, §8, §9, §10, §11

SMILES: C=C(C)C1C2OC(=O)C1(C)C1(O)CC3OC34C(=O)OC2C41C (centres unmarked) [5MePXN, 5-methylpicrotoxinin]
- IC50 (Drosophila RDL): 1710 nM
- increase of extrapolated half-life by C5 methylation, mouse plasma ([1]; 5MePXN vs. PXN): 2.1 X
- T½ in mouse plasma [1]: 3.45 h
- half-life at 2 µM [1]: 3.45 h
- remaining at 0 h, 2 µM [1]: 100%
- remaining at 10 min, 2 µM [1]: 97.9%
- remaining at 0.5 h, 2 µM [1]: 87.9%
- remaining at 1 h, 2 µM [1]: 75.7%
- remaining at 2 h, 2 µM [1]: 68%
- increase of extrapolated half-life by C5 methylation, human plasma ([2]; 5MePXN vs. PXN): 2.7 X
- T½ in human plasma [2]: 4.82 h and > 4.82 h
- half-life at 2 µM [2]: 4.82 h
- remaining at 0 h, 2 µM [2]: 100%
- remaining at 10 min, 2 µM [2]: 103%
- remaining at 0.5 h, 2 µM [2]: 93.7%
- remaining at 1 h, 2 µM [2]: 84.5%
- remaining at 2 h, 2 µM [2]: 77.7%

SMILES: C=C(C)[C@@H]1[C@H]2OC(=O)[C@@H]1[C@]1(O)C[C@H]3O[C@]34C(=O)O[C@H]2[C@]14C [PXN, picrotoxinin]
- IC50 (Drosophila RDL): 800 nM
- T½ in mouse plasma [1]: 1.62 h
- half-life at 2 µM [1]: 1.62 h
- remaining at 0 h, 2 µM [1]: 100%
- remaining at 10 min, 2 µM [1]: 102%
- remaining at 0.5 h, 2 µM [1]: 87.1%
- remaining at 1 h, 2 µM [1]: 67.4%
- remaining at 2 h, 2 µM [1]: 44.7%
- T½ in human plasma [2]: 1.8 h
- half-life at 2 µM [2]: 1.8 h
- remaining at 0 h, 2 µM [2]: 100%
- remaining at 10 min, 2 µM [2]: 130%
- remaining at 0.5 h, 2 µM [2]: 114%
- remaining at 1 h, 2 µM [2]: 72.9%
- remaining at 2 h, 2 µM [2]: 55.8%

Reference: PMC10721898, “C5 methylation confers accessibility, stability and selectivity to picrotoxinin” (Nature Communications, 2023)
